Test: xn = mol fraction of the nth substance listed
Details: for surface tension liquid-gas: Wilhelmy plates; for viscosity / mass density: 101 kPa, Liquid; for viscosity: Capillary tube (Ostwald / Ubbelohde) method; for mass density: Vibrating tube method

CC(=O)[O-].CCn1cc[n+](C)c1 [1-ethyl-3-methylimidazolium acetate] + CC(C)O
Details | mass density, 318.15 K [kg/m3] | mass density, 328.15 K [kg/m3] | mass density, 338.15 K [kg/m3] | surface tension liquid-gas, 318.15 K [mN/m] | surface tension liquid-gas, 328.15 K [mN/m] | surface tension liquid-gas, 338.15 K [mN/m] | viscosity, 318.15 K [mPa·s] | viscosity, 328.15 K [mPa·s] | viscosity, 338.15 K [mPa·s]
x1 = 0.1 | 829.99 | 822.14 | 814.08 | 21.8 | 20.8 | 20.1 | 2.511 | 1.998 | 1.617
x1 = 0.2 | 879.94 | 872.8 | 865.6 | 24.1 | 23.5 | 22.6 | 4.067 | 3.272 | 2.683
x1 = 0.3 | 921.35 | 914.57 | 907.78 | 26.1 | 25.5 | 25 | 6.344 | 5.049 | 4.086
x1 = 0.4 | 956.47 | 949.91 | 943.37 | 27.9 | 27.4 | 26.9 | 9.506 | 7.378 | 5.876
x1 = 0.5 | 986.52 | 980.11 | 973.74 | 29.9 | 29.6 | 29.1 | 13.61 | 10.28 | 8.019
x1 = 0.5997 | – | – | – | 31.6 | 31.5 | 30.7 | – | – | –
x1 = 0.5998 | 1012.39 | 1006.1 | 999.84 | – | – | – | 18.87 | 13.77 | 10.46
x1 = 0.7 | 1034.96 | 1028.76 | 1022.6 | 33.7 | 33.4 | 32.9 | 25.08 | 17.83 | 13.23
x1 = 0.7993 | 1054.38 | 1048.25 | 1042.17 | – | – | – | 32.33 | 22.39 | 16.22
x1 = 0.7994 | – | – | – | 36.8 | 36.4 | 36 | – | – | –
x1 = 0.9 | 1071.81 | 1065.74 | 1059.72 | 40.2 | 40 | 39.3 | 40.36 | 27.23 | 19.37
x1 = 1 | 1086.86 | 1080.82 | 1074.83 | 46.1 | 45.9 | 45.4 | 47.37 | 31.29 | 21.85

Reference: the NIST ThermoML archive (doi:10.1021/acs.jced.5b01023)
